From the NIST ThermoML archive (doi:10.1016/j.jct.2006.09.012)
Values joined by “and” are separate entries in the source; they are usually repeats but may differ in a detail not shown here. Identical values can stand only once. ± gives the expanded uncertainty stated by the source.

Conditions: Gas, Buoyancy - hydrostatic balance with magnetic suspension - two sinkers

N#N [nitrogen]
Conditions | mass density
250 K, 4032 kPa | 55.8107 ± 0.04 kg/m3 [middle of 5 runs]
250 K, 7922 kPa | 111.201 ± 0.16 kg/m3
250 K, 7922.1 kPa | 111.201 ± 0.16 kg/m3
250 K, 11944 kPa | 167.531 ± 0.35 kg/m3 and 167.53 ± 0.35 kg/m3
250 K, 15945 kPa | 220.078 ± 0.59 kg/m3 and 220.076 ± 0.59 kg/m3
250 K, 15946 kPa | 220.079 ± 0.59 kg/m3
250 K, 19672 kPa | 264.436 ± 0.85 kg/m3 [middle of 5 runs]
250 K, 23918 kPa | 309.033 ± 1.2 kg/m3 and 309.035 ± 1.2 kg/m3 and 309.038 ± 1.2 kg/m3
250 K, 23919 kPa | 309.043 ± 1.2 kg/m3
250 K, 23920 kPa | 309.056 ± 1.2 kg/m3
250 K, 23921 kPa | 309.062 ± 1.2 kg/m3
250 K, 27922 kPa | 345.621 ± 1.4 kg/m3 [middle of 4 runs]
250 K, 27923 kPa | 345.629 ± 1.4 kg/m3 and 345.627 ± 1.4 kg/m3
250 K, 31914 kPa | 377.498 ± 1.7 kg/m3 and 377.5 ± 1.7 kg/m3
250 K, 31915 kPa | 377.505 ± 1.7 kg/m3 and 377.504 ± 1.7 kg/m3
250 K, 31916 kPa | 377.516 ± 1.7 kg/m3 and 377.513 ± 1.7 kg/m3
273.16 K, 3969.2 kPa | 49.6242 ± 0.033 kg/m3 [middle of 4 runs]
273.16 K, 3969.3 kPa | 49.6242 ± 0.033 kg/m3
273.16 K, 6172.5 kPa | 77.4431 ± 0.076 kg/m3 and 77.4438 ± 0.076 kg/m3 and 77.4433 ± 0.076 kg/m3
273.16 K, 6172.6 kPa | 77.4441 ± 0.076 kg/m3 and 77.4442 ± 0.076 kg/m3
273.16 K, 8165.1 kPa | 102.478 ± 0.14 kg/m3 and 102.48 ± 0.14 kg/m3
273.16 K, 8165.2 kPa | 102.48 ± 0.14 kg/m3 and 102.479 ± 0.14 kg/m3
273.16 K, 12168 kPa | 151.567 ± 0.29 kg/m3 [middle of 5 runs]
273.16 K, 16376 kPa | 200.13 ± 0.5 kg/m3 [middle of 5 runs]
273.16 K, 20308 kPa | 241.736 ± 0.72 kg/m3 and 241.739 ± 0.72 kg/m3
273.16 K, 20309 kPa | 241.746 ± 0.72 kg/m3 and 241.745 ± 0.72 kg/m3 and 241.743 ± 0.72 kg/m3
273.16 K, 24524 kPa | 281.91 ± 0.98 kg/m3
273.16 K, 24525 kPa | 281.913 ± 0.98 kg/m3 and 281.915 ± 0.98 kg/m3
273.16 K, 24526 kPa | 281.922 ± 0.98 kg/m3 and 281.921 ± 0.98 kg/m3
273.16 K, 28792 kPa | 318.055 ± 1.2 kg/m3
273.16 K, 28793 kPa | 318.057 ± 1.2 kg/m3 and 318.058 ± 1.2 kg/m3
273.16 K, 28794 kPa | 318.067 ± 1.2 kg/m3 and 318.065 ± 1.2 kg/m3
273.16 K, 33963 kPa | 356.391 ± 1.6 kg/m3
273.16 K, 33964 kPa | 356.402 ± 1.6 kg/m3 and 356.397 ± 1.6 kg/m3
273.16 K, 33965 kPa | 356.407 ± 1.6 kg/m3
273.16 K, 33966 kPa | 356.413 ± 1.6 kg/m3
293.14 K, 99.9 kPa | 1.1487 ± 0.0034 kg/m3 [middle of 4 runs]
293.14 K, 199.8 kPa | 2.2978 ± 0.0035 kg/m3 and 2.2977 ± 0.0035 kg/m3 and 2.2976 ± 0.0035 kg/m3
293.14 K, 299.7 kPa | 3.447 ± 0.0036 kg/m3 and 3.4472 ± 0.0036 kg/m3 and 3.4473 ± 0.0036 kg/m3
293.14 K, 499.5 kPa | 5.7475 ± 0.0038 kg/m3 and 5.7477 ± 0.0038 kg/m3 and 5.7476 ± 0.0038 kg/m3
293.14 K, 749.2 kPa | 8.6261 ± 0.004 kg/m3 and 8.626 ± 0.004 kg/m3
293.14 K, 749.3 kPa | 8.6261 ± 0.004 kg/m3
293.14 K, 999 kPa | 11.5072 ± 0.0045 kg/m3 [middle of 5 runs]
293.14 K, 1498.5 kPa | 17.2762 ± 0.011 kg/m3 [middle of 6 runs]
293.14 K, 1998 kPa | 23.0541 ± 0.012 kg/m3 and 23.0539 ± 0.012 kg/m3
293.14 K, 2997.1 kPa | 34.6233 ± 0.019 kg/m3 and 34.6235 ± 0.019 kg/m3 and 34.6236 ± 0.019 kg/m3
293.14 K, 3996.1 kPa | 46.1976 ± 0.029 kg/m3 [middle of 5 runs]
293.14 K, 4995.1 kPa | 57.7592 ± 0.044 kg/m3
293.14 K, 4995.2 kPa | 57.7597 ± 0.044 kg/m3 and 57.7599 ± 0.044 kg/m3
293.14 K, 5994.2 kPa | 69.2908 ± 0.063 kg/m3 and 69.291 ± 0.063 kg/m3 and 69.2909 ± 0.063 kg/m3
293.14 K, 5994.3 kPa | 69.2914 ± 0.063 kg/m3 and 69.2915 ± 0.063 kg/m3
293.15 K, 4004.8 kPa | 46.2934 ± 0.03 kg/m3 [middle of 6 runs]
293.15 K, 4004.9 kPa | 46.2937 ± 0.03 kg/m3
293.15 K, 5964.9 kPa | 68.9512 ± 0.062 kg/m3 [middle of 5 runs]
293.15 K, 7948.6 kPa | 91.6869 ± 0.12 kg/m3 [middle of 4 runs]
293.15 K, 7948.8 kPa | 91.689 ± 0.12 kg/m3 and 91.6881 ± 0.12 kg/m3
293.15 K, 11980 kPa | 136.716 ± 0.24 kg/m3 [middle of 7 runs]
293.15 K, 15954 kPa | 178.78 ± 0.41 kg/m3
293.15 K, 15955 kPa | 178.782 ± 0.41 kg/m3 [middle of 7 runs]
293.15 K, 19567 kPa | 214.452 ± 0.58 kg/m3 and 214.453 ± 0.58 kg/m3
293.15 K, 19568 kPa | 214.457 ± 0.58 kg/m3
293.15 K, 24175 kPa | 256.042 ± 0.83 kg/m3
293.15 K, 24176 kPa | 256.052 ± 0.83 kg/m3 [middle of 4 runs]
293.15 K, 28412 kPa | 290.447 ± 1.1 kg/m3 [middle of 4 runs]
293.15 K, 28413 kPa | 290.455 ± 1.1 kg/m3 and 290.453 ± 1.1 kg/m3
293.15 K, 32144 kPa | 317.902 ± 1.3 kg/m3
293.15 K, 32145 kPa | 317.909 ± 1.3 kg/m3 and 317.905 ± 1.3 kg/m3
293.15 K, 32146 kPa | 317.912 ± 1.3 kg/m3
293.15 K, 32147 kPa | 317.922 ± 1.3 kg/m3 and 317.917 ± 1.3 kg/m3
293.15 K, 32148 kPa | 317.926 ± 1.3 kg/m3
320 K, 4775.8 kPa | 50.1489 ± 0.035 kg/m3 and 50.1482 ± 0.035 kg/m3 and 50.1481 ± 0.035 kg/m3
320 K, 4775.9 kPa | 50.1492 ± 0.035 kg/m3 and 50.1493 ± 0.035 kg/m3 and 50.149 ± 0.035 kg/m3
320 K, 10135 kPa | 104.999 ± 0.15 kg/m3 and 105.001 ± 0.15 kg/m3 and 105.002 ± 0.15 kg/m3
320 K, 20210 kPa | 198.799 ± 0.51 kg/m3 [middle of 6 runs]
339.98 K, 499.5 kPa | 4.9482 ± 0.0035 kg/m3 and 4.9481 ± 0.0035 kg/m3 and 4.948 ± 0.0035 kg/m3
339.98 K, 999 kPa | 9.8915 ± 0.004 kg/m3 and 9.8916 ± 0.004 kg/m3
339.98 K, 1998 kPa | 19.7585 ± 0.011 kg/m3 and 19.7583 ± 0.011 kg/m3 and 19.7584 ± 0.011 kg/m3
339.98 K, 3996 kPa | 39.3819 ± 0.023 kg/m3 [middle of 4 runs]
339.98 K, 5994.1 kPa | 58.7959 ± 0.048 kg/m3 and 58.796 ± 0.048 kg/m3
339.99 K, 5081.9 kPa | 49.9596 ± 0.035 kg/m3
339.99 K, 5082 kPa | 49.9602 ± 0.035 kg/m3 and 49.9596 ± 0.035 kg/m3
339.99 K, 5082.1 kPa | 49.9616 ± 0.035 kg/m3
339.99 K, 21784 kPa | 198.014 ± 0.52 kg/m3
340 K, 5082 kPa | 49.96 ± 0.035 kg/m3
340 K, 10840 kPa | 104.588 ± 0.15 kg/m3 and 104.589 ± 0.15 kg/m3
340 K, 21784 kPa | 198.008 ± 0.52 kg/m3 [middle of 5 runs]
340.01 K, 3874.6 kPa | 38.1897 ± 0.022 kg/m3 [middle of 6 runs]
340.01 K, 5932.3 kPa | 58.1965 ± 0.047 kg/m3 and 58.1955 ± 0.047 kg/m3
340.01 K, 5932.4 kPa | 58.1962 ± 0.047 kg/m3
340.01 K, 7789.6 kPa | 75.9992 ± 0.09 kg/m3
340.01 K, 7789.7 kPa | 76.0004 ± 0.09 kg/m3 [middle of 5 runs]
